Experiments:
[1] = system: lymphocytic leukemia P388; assay: Lymphocytic Leukemia P388 Test; format: in vivo, BDF1 mice; settings: for Median Survival: BDF1 mice; for T/C × 100 (%): ratio of survival time treated/control
Procedure, shortened: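 BDF1 mice (5–6 per group) were inoculated i.p. with 10^6 P388 cells, then dosed i.p. on days 1, 5 and 9 at various doses. Survival was followed for 60 days, and median survival time and the treated/control (T/C) survival ratio were calculated.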

[2] = system: melanotic melanoma B16 tumor; assay: Melanotic Melanoma B16 test; format: in vivo, BDF1 mice; settings: for Median Survival: BDF1 mice; for T/C × 100 (%): ratio of survival time treated/control
Description: The animals used were BDFl mice, all of the same sex, weighing a minimum of 17 g and all within a 3 g weight range. There were 12 animals per test group. A 1 g portion of melanotic melanoma B16 tumor was homogenized in 10 ml of cold balanced salt solution and a 0.5 ml aliquot of the homogenate was implanted intraperitoneally into each of the test mice. The test compounds were administered intraperitoneally on days 1, 5 and 9 (relative to tumor inoculation) at various doses. The animals were weighed and survivors recorded on a regular basis for 60 days. The median survival time and ratio of survival time for treated (T)/control (C) animals were calculated. The positive control compound was 1,4-bis[(2-aminoethyl)amino]-5,8-dihydroxyanthraquinone, dihydrochloride (U.S. patent application Ser. No. 87,354, filed Oct. 23, 1979).

[3] = dose 0.75 mg/kg intraperitoneally on days 1, 5 and 9
[4] = dose 1.5 mg/kg intraperitoneally on days 1, 5 and 9
[5] = dose 3 mg/kg intraperitoneally on days 1, 5 and 9

Compound | Median Survival [1, 3] [days] | T/C × 100 (%) [1, 3] [%] | Median Survival [1, 4] [days] | T/C × 100 (%) [1, 4] [%] | Median Survival [1, 5] [days] | T/C × 100 (%) [1, 5] [%] | Median Survival [2, 3] [days] | T/C × 100 (%) [2, 3] [%] | Median Survival [2, 4] [days] | T/C × 100 (%) [2, 4] [%] | Median Survival [2, 5] [days] | T/C × 100 (%) [2, 5] [%]
Cl.Cl.N[C@@H](CCC(=O)O)C(=O)NCCNc1ccc(NCCNC(=O)[C@@H](N)CCC(=O)O)c2c1C(=O)c1c(O)ccc(O)c1C2=O (relative stereo) [Example 23, [S-(R*,R*)]-5,5'-[(9,10-Dihydro-5,8-dihydroxy-9,10-dioxo-1,4-anthracenediyl)bis(imino-2,1-ethanediylimino)]-bis[4-amino-5-oxo-pentanoic acid], dihydrochloride] | 22.0 | 220 | 24.5 | 245 | 41.0 | 410 | 27.5 | 162 | 31.0 | 182 | 22.0 | 129
Cl.Cl.NCCNc1ccc(NCCN)c2c1C(=O)c1c(O)ccc(O)c1C2=O [1,4-bis[(2-aminoethyl)amino]-5,8-dihydroxyanthraquinone, dihydrochloride, reference compound] |  |  |  |  |  |  |  |  | 46.5 | 274 |  | 
Br.Br.C[C@H](NCCNc1ccc(NCCN[C@@H](C)C(=O)N[C@@H](CCCNC(=N)N)C(=O)OC(C)(C)C)c2c1C(=O)c1c(O)ccc(O)c1C2=O)C(=O)N[C@@H](CCCNC(=N)N)C(=O)OC(C)(C)C [Example 87, N,N'-[(9,10-Dihydro-5,8-dihydroxy-9,10-dioxo-1,4-anthracenediyl)bis(imino-2,-ethanediyl)]bis[L-alanyl-L-arginine]bis(1,1-dimethylethyl)ester, dihydrobromide] | 17.0 | 170 | 19.0 | 190 | 20.5 | 205 |  |  |  |  |  | 
Br.Br.Br.Br.C[C@H](N)C(=O)N[C@@H](CCCNC(=N)N)C(=O)NCCNc1ccc(NCCNC(=O)[C@H](CCCNC(=N)N)NC(=O)[C@H](C)N)c2c1C(=O)c1c(O)ccc(O)c1C2=O [Example 88, N,N'-[(9,10-Dihydro-5,8-dihydroxy-9,10-dioxo-1,4-anthracenediyl)bis(imino-2,1-ethanediyl)]bis-[L-alanyl-L-argininamide]tetrahydrobromide] | 22.5 | 225 | 33.0 | 330 | 44.0 | 440 |  |  |  |  |  | 
Br.Br.C[C@H](NC(=O)OC(C)(C)C)C(=O)N[C@@H](C)C(=O)N[C@@H](CCCNC(=N)N)C(=O)NCCNc1ccc(NCCNC(=O)[C@H](CCCNC(=N)N)NC(=O)[C@H](C)NC(=O)[C@H](C)NC(=O)OC(C)(C)C)c2c1C(=O)c1c(O)ccc(O)c1C2=O [Example 89, N,N'-[(9,10-Dihydro-5 8-dihydroxy-9,10-dioxo-1,4-anthracenediyl)bis(imino-2,1-ethanediyl)]bis[N-[(1,1-dimethylethoxy)carbonyl]-L-alanyl-L-alanyl-L-argininamide]-dihydrobromide] | 17.0 | 155 | 17.5 | 159 | 24.5 | 223 |  |  |  |  |  | 
Br.Br.C[C@H](N)C(=O)N[C@@H](C)C(=O)N[C@@H](CCCNC(=N)N)C(=O)NCCNc1ccc(NCCNC(=O)[C@H](CCCNC(=N)N)NC(=O)[C@H](C)NC(=O)[C@H](C)N)c2c1C(=O)c1c(O)ccc(O)c1C2=O.O=C(O)C(F)(F)F.O=C(O)C(F)(F)F [Example 90, N,N'-[(9,10-Dihydro-5,8-dihydroxy-9,10-dioxo-1,4-anthracenediyl)bis(imino-2,1-ethanediyl)]bis[L-alanyl-L-alanyl-L-argininamide], dihydrobromide, bis(trifluoroacetate)] | 23.5 | 214 | 23.5 | 214 | 19.5 | 177 |  |  |  |  |  | 
Br.Br.C[C@H](NC(=O)[C@H](CO)NC(=O)[C@H](CCCNC(=N)N)NC(=O)OCc1ccccc1)C(=O)NCCNc1ccc(NCCNC(=O)[C@H](C)NC(=O)[C@H](CO)NC(=O)[C@H](CCCNC(=N)N)NC(=O)OCc2ccccc2)c2c1C(=O)c1c(O)ccc(O)c1C2=O [Example 93, N,N'-[(9,10-Dihydro-5,8-dihydroxy-9,10-dioxo-1,4-anthracencdiyl)bis(imino-2,1-ethanediyl)][L-alanyl-L-seryl-carbobenzyloxy-L-argininamide]dihydrobromide] | 22.0 | 200 | 22.5 | 205 | 24.5 | 223 |  |  |  |  |  | 
Br.Br.Br.Br.C[C@H](NC(=O)[C@H](CO)NC(=O)[C@@H](N)CCCNC(=N)N)C(=O)NCCNc1ccc(NCCNC(=O)[C@H](C)NC(=O)[C@H](CO)NC(=O)[C@@H](N)CCCNC(=N)N)c2c1C(=O)c1c(O)ccc(O)c1C2=O [Example 94, N,N'-[(9,10-Dihydro-5,8-dihydroxy-9,10-dioxo-1,4-anthracenediyl)bis(imino-2,1-ethanediyl)]bis[L-arginyl-L-seryl-L-alaninamide], tetrahydrobromide] | 21.5 | 195 | 21.0 | 191 | 34.5 | 314 |  |  |  |  |  | 
N,N'-[(9,10-Dihydro-5,8-dihydroxy-9,10-dioxo-1,4-anthracenediyl)bis(imino-2,1-ethanediyl)]bis[L-alanyl-L-alanine]bis(trifluoroacetate) [Example 72] | 20.0 | 190 | 20.0 | 190 | 23.0 | 219 |  |  |  |  |  | 
N,N'-[(9,10-Dihydro-5,8-dihydroxy-9,10-oxo-1,4-anthracenediyl)bis(imino-2,1-ethanediyl) ]bis[L-arginine(phenylmethyl)]ester, dihydrobromide [Example 85] | 21.5 | 179 | 21.0 | 175 | 22.5 | 188 |  |  |  |  |  | 
[S-(R*,R*)][(9,10-Dihydro-5,8-dihydroxy-9,10-dioxo-1,4-anthracenediyl)bis[1-[3-[[imino(nitroamino)methyl]amino]propyl]-2-oxo-2,1-ethanediyl]]bis-carbamic acid, bis(phenylmethyl)ester [Example 91] | 15.5 | 141 | 16.5 | 150 | 18.0 | 164 |  |  |  |  |  | 
[S-(R*,R*)][(9,10-Dihydro-5,8-dihydroxy-9,10-dioxo-1,4-anthracenediyl)bis[imino-2,1-ethanediylimino[1-[3-[[imino[[(phenylmethoxy)carbonyl]amino]methyl][(phenylmethoxy)carbonyl]propyl]-2-oxo-2,1-ethanediyl]]]carbamic acid, bis(phenylmethyl)ester [Example 95] | 14.0 | 127 | 16.0 | 145 | 16.0 | 145 |  |  |  |  |  | 
